Source: US10077241B2 (Janssen Pharmaceutica NV, priority 2014, dated 2018)

Experiments:
TGR5 (STC1 cell line) = biological target: T1, TGR5 (STC1 cell line) (Mus musculus, UniProt Q80SS6); experiment: STC1 cAMP Agonist EC50 Determination
T1 sequence (Q80SS6 1-329): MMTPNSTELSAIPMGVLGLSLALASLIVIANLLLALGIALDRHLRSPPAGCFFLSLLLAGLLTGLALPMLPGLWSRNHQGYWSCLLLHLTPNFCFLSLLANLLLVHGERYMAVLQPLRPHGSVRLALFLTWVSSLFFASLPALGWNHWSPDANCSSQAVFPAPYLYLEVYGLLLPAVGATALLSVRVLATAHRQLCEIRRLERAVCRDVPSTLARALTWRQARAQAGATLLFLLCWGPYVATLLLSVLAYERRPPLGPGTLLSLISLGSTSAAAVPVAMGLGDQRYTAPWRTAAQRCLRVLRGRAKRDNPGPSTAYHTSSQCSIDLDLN
Procedure: Cell stocks were maintained and grown in a sub-confluent state using standard cell culture procedures. The day before the experiment, the cells were harvested with non-enzymatic cell dissociation buffer and resuspended in complete growth media at 4E5 c/ml. […] The seeded plates were incubated overnight at 37° C.
On the day of the experiment, Assay Buffer containing: HBSS with Ca^2+and Mg^2+; 5 μM HEPES; 0.1% BSA; and, 0.5 μM IBMX was prepared. The growth medium was washed from the cell plates and replaced with 20 μL of Assay Buffer. […] The reaction was stopped by the addition of 20 μL 0.1% Formic Acid to all wells. Sixty minutes later 30 μL 3 M deuterated AMP was added to all wells (as a control for volume addition to the mass spec). Plates were mixed on a plate shaker for 1 min and centrifugated (5 min 3000 RPMs no brakes).
Plates were run on a 4000 QTrap triple-quadrapole Mass spectrometer in positive ion mode coupled with a Biocius RapidFire 300is. […] Two ions (cAMP and deuterated AMP were measured using Multiple Reaction Monitoring (MRM) in positive ion mode and the area under the curve (AUC) was determined for each of the ions.
The data from the Mass Spec/Rapid Plate AUC for cAMP and deuterated AMP were imported to an Excel worksheet. A Normalized signal (NS) was generated for each well=(cAMP AUC for the well/deut AMP AUC for the well)*average deut AMP AUC for the plate). nM cAMP was calculated for each well from the cAMP standard curves located on each plate by first calculating the slope and deriving the intercept (b).
EC50 values were determined from a 4-point fit (Hill equation) of a single 11-point compound dosing.

[1] = biological target: T2, TGR5 (NCI-H716 cell line) (Homo sapiens, UniProt Q8TDU6); experiment: NCI-H716 cAMP Agonist EC50 Determination
T2 sequence (Q8TDU6 1-330): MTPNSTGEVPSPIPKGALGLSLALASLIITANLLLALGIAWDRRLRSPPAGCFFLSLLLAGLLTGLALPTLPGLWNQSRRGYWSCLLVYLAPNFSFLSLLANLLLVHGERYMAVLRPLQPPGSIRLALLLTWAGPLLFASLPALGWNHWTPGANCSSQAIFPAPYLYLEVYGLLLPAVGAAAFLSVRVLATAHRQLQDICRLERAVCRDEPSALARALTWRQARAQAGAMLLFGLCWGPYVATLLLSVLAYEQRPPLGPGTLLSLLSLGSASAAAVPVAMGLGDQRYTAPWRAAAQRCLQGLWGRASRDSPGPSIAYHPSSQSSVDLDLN
Procedure: Cells were cultured in suspension using RPM containing: 10% HI FBS, and 1× Penn/Strep and were cryostored (1E7 cells/vial in 5% DMSO).
A Normalized signal (NS) is generated by the Envision for each well ((Read 1/Read 2)×10,000).
The data from the Envision were imported to an Excel worksheet. nM cAMP is calculated for each well from the cAMP standard curves located on each plate by first calculating the slope and deriving the intercept (b).
[formula] [formula] [formula] EC50 values were determined from a 4-point fit (Hill equation) of a single 11-point compound dosing.

Compound | EC50 (TGR5 (STC1 cell line)) [µM] | EC50 [1] [µM]
COc1ccc(C2(C)CCCc3nc(SCc4c(F)cc(OCCCl)cc4F)n(-c4ccc(F)cc4)c32)cc1OC (centres unmarked) [Example 107, 2-((4-(2-chloroethoxy)-2,6-difluorobenzyl)thio)-7-(3,4-dimethoxyphenyl)-1-(4-fluorophenyl)-7-methyl-4,5,6,7-tetrahydro-1H-benzo[d]imidazole] | 0.32 | 1.4
COc1cc(C2(C)CCCc3nc(SCc4c(F)cc(C(=O)N5CCOCC5)cc4F)n(-c4ccc(F)cc4)c32)ccc1Cl (centres unmarked) [Example 93, 7-(4-chloro-3-methoxyphenyl)-2-[([2,6-difluoro-4-[(morpholin-4-yl)carbonyl]phenyl]methyl)sulfanyl]-1-(4-fluorophenyl)-7-methyl-4,5,6,7-tetrahydro-1H-1,3-benzodiazole] | 0.25 | > 50
COc1cc(C2(C)CCCc3nc(SCc4c(F)cc(C(=O)O)cc4F)n(-c4ccc(F)cc4)c32)ccc1Cl (centres unmarked) [Example 81, 4-((7-(4-chloro-3-methoxyphenyl)-1-(4-fluorophenyl)-4,5,6,7-tetrahydro-7-methyl-1H-benzo[d]imidazol-2-ylthio)methyl)-3,5-difluorobenzoic acid trifluoroacetic acid] | 1.75 | > 50
COc1cc(C2CCCc3nc(SCc4c(F)cc(CCCNC(=N)N)cc4F)n(-c4ccc(F)cc4)c32)ccc1Cl (centres unmarked) [Example 42, 1-(3-(4-((7-(4-chloro-3-methoxyphenyl)-1-(4-fluorophenyl)-4,5,6,7-tetrahydro-1H-benzo[d]imidazol-2-ylthio)methyl)-3,5-difluorophenyl)propyl)guanidine trifluoroacetic acid] | 0.53 | > 50
COc1cc(C2CCCc3nc(SCc4c(F)cccc4C#N)n(-c4ccc(F)cc4)c32)ccc1Cl (centres unmarked) [Example 14, 2-([[7-(4-chloro-3-methoxyphenyl)-1-(4-fluorophenyl)-4,5,6,7-tetrahydro-1H-1,3-benzodiazol-2-yl]sulfanyl]methyl)-3-fluorobenzonitrile] | 0.53 | > 50
COc1cc(C2CCCc3nc(SCc4c(F)cc(S(=O)(=O)NCCC[N+](C)(C)C)cc4F)n(-c4ccc(F)cc4)c32)ccc1Cl (centres unmarked) [Example 22, 3-(4-((7-(4-chloro-3-methoxyphenyl)-1-(4-fluorophenyl)-4,5,6,7-tetrahydro-1H-benzo[d]imidazol-2-ylthio)methyl)-3,5-difluorophenylsulfonamido)-N,N,N-trimethylpropan-1-aminium 2,2,2-trifluoroacetate] | 32.6 | > 50
COc1cc(C2CC(C)Cc3nc(SCc4c(F)cccc4Cl)n(-c4ccc(F)cc4)c32)ccc1Cl (centres unmarked) [Example 61, 7-(4-chloro-3-methoxyphenyl)-2-[[(2-chloro-6-fluorophenyl)methyl]sulfanyl]-1-(4-fluorophenyl)-5-methyl-4,5,6,7-tetrahydro-1H-1,3-benzodiazole] | 3.89 | > 50
COc1cc(C2(C)CCCc3nc(SCc4ncncc4Cl)n(-c4ccc(F)cc4)c32)ccc1Cl (centres unmarked) [Example 86, 7-(4-chloro-3-methoxyphenyl)-2-((5-chloropyrimidin-4-yl)methylthio)-1-(4-fluorophenyl)-7-methyl-4,5,6,7-tetrahydro-1H-benzo[d]imidazole trifluoroacetic acid] | 2.22 | 27.1
COc1cc(C2(C)CCCc3nc(SCc4c(F)cc(C(=O)O)cc4F)n(-c4ccc(F)cc4)c32)ccc1F (centres unmarked) [Example 120, 3,5-difluoro-4-(((7-(4-fluoro-3-methoxyphenyl)-1-(4-fluorophenyl)-7-methyl-4,5,6,7-tetrahydro-1H-benzo[d]imidazol-2-yl)thio)methyl)benzoic acid] | 1.18 | > 50
COc1cc(C2CCCc3nc(SCc4c(F)cc(CCc5nnn[nH]5)cc4F)n(-c4ccc(F)cc4)c32)ccc1Cl (centres unmarked) [Example 49, 2-(4-(2-(1H-tetrazol-5-yl)ethyl)-2,6-difluorobenzylthio)-7-(4-chloro-3-methoxyphenyl)-1-(4-fluorophenyl)-4,5,6,7-tetrahydro-1H-benzo[d]imidazole trifluoroacetic acid] | 0.94 | > 50
